Source: patent US20240252668A1, “ANTIBODY DRUG CONJUGATES AND METHODS FOR MAKING THEREOF” (Novartis AG, priority 2021, published 2024)
Like-named read-outs stand apart in the source and are kept apart here. Starred links: 1 amine or outer side, 2 acyl side, 3 side chain; linkers in the order of their positions; H or OH if unused. Positions of bridges follow the written chain, without caps; N, C: chain ends. Non-standard residues stand in square brackets, D forms with d. Residues, ends and D or L forms follow the SMILES beside them. *: point of attachment. Leu(3R-O(AcLeu(3R-OH))) = CC(=O)N[C@H](C(=O)O[C@H](C(C)C)[C@H](N)C(=O)O)[C@H](O)C(C)C; Leu(3R-OH,Nα-propionyl) = CCC(=O)N[C@H](C(=O)*)[C@H](O)C(C)C; X1 = CC(C)[C@@H](O[*:3])[C@H](N[*:1])C(=O)[*:2]; NMeT = CN[C@H](C(=O)O)[C@@H](C)O; dPhLac = O=C(O)[C@H](O)Cc1ccccc1; NMeA = CN[C@@H](C)C(=O)O; NMeDha = C=C(NC)C(=O)O; Propionyl = CCC(=O)*

Assays:
[1] = system: MP41 uveal melanoma cell line (heterozygous GNA11 Q209L); assay: Cell proliferation assay (resazurin cell viability), MP41 cell line; format: cell-based
Text: (§1) Cell Proliferation Assays with Chromodepsins (compounds (A1) and 2-15): Cell line descriptions: 92.1—uveal melanoma cell line, derived from primary tumor, harboring heterozygous GNAQ Q209L mutation. Purchased from Sigma Aldrich. MP41 (CRL-3297) -uveal melanoma cell line, derived from primary tumor, harboring heterozygous GNA11 Q209L mutation. Purchased from ATCC. A375—skin melanoma cell line, harboring homozygous BRAF V600E mutation. Origin: Cancer Cell Line Encyclopedia (CCLE). SK-MEL-30—skin melanoma cell line, harboring heterozygous NRAS Q61K mutation. Origin: CCLE.
(§2) Cells were cultured in 96-well plates in a total volume of 100 μL at 37° C., 5% CO2 and 95% relative humidity. All cell lines were cultured in RPMI Medium (RPMI 1640 w/o L-glutamine, Bioconcept ref. 1-41F01-I) except A375, DMEM medium (DMEM high glucose (4.5 g/L), Bioconcept, ref. 1-26F01-I), and supplemented with 10% FCS (Bioconcept, ref. 2-01F30-I). Two to three thousand cells were seeded in 96-well plates per well the night before they were treated with compounds (concentration range: from 260 nM to 0.036 nM with ⅓ dilution steps; for 7 the concentration range was increased from 10000 nM to 1.52 nM with ⅓ dilution steps). Cell viability was measured by addition of 10 ul of resazurin per well after 96 hours of treatment. Results were analyzed and plotted using GraphPad Prism 9.0.1.

[2] = system: A375 skin melanoma cell line (homozygous BRAF V600E); assay: Cell proliferation assay (resazurin cell viability), A375 cell line; format: cell-based
Text: as §1, §2

[3] = system: 92.1 uveal melanoma cell line (heterozygous GNAQ Q209L); assay: Cell proliferation assay (resazurin cell viability), 92.1 cell line; format: cell-based
Text: as §1, §2

[4] = system: SK-MEL-30 skin melanoma cell line (heterozygous NRAS Q61K); assay: Cell proliferation assay (resazurin cell viability), SK-MEL-30 cell line; format: cell-based
Text: as §1, §2

[5] = system: 92.1 and MP41 cell lines (GNAQ/GNA11 mutant uveal melanoma); assay: Cell proliferation assays, potency ranking over both uveal melanoma lines; format: cell-based; conditions: 92.1 and MP41 cell lines
Text: The selective antiproliferative profile of the chromodepsins against GNAQ/GNA11 mutant cell lines is confirmed by the lack of activity against the A375 and SK MEL 30 cell lines that are independent from GNAQ/GNA11 signaling. The potency ranking using the 92.1 and MP41 cell lines is in good agreement with the previously SAR studies. […] These findings are in line with a recent report from Voss et al., highlighting the importance of the “lipophilic anchors” of compound (A1) at the residues varied in compounds 2 and 3, in context of binding kinetics and prolonged residence time on the target proteins. The retained potency of compound 4 indicates a promising exit vector for potential synthetic or biosynthetic modifications of the scaffold. […] The linearized depsipeptides compounds 5-7 lack any antiproliferative activity. In this experimental setup, the cellular permeability of the compounds was a crucial factor contributing to the observed antiproliferative potency. Therefore, all compounds were characterized in a low efflux MCDK assay and determined their exposed polar surface areas (EPSA) in order to assess their passive cellular permeabilities. All macrocyclic chromodepsins that feature the N acyl Hle side chain show similar results concerning their % fraction absorbed (% FA; average ˜60% FA+20%) and EPSA values.
as §1, §2

MDCK-LE monolayers = assay: Cell-based transwell assay with MDCK-low efflux monolayers (passive permeability); format: in vitro ADME; conditions: MDCK-LE monolayers
Protocol: Cell-based transwell assays with MDCK-low efflux monolayers: Compounds (A1) and 2-15 were tested in MDCK cell sub-clones with low effluxt ransporter activity (MDCK-LE) in order to determine their passive permeability. The incubations were performed at a contract research organization as described previously.

[6] = EPSA determination by supercritical fluid chromatography; format: physicochemical; conditions: modified EPSA method, SFC
Protocol: […] by supercritical fluid chromatography: Compounds (A1) and 2-15 were tested by supercritical fluid chromatography (SFC) to determine their ESAPSA values. Samples were analyzed using a Chirex 3014 column ([…], 3×100 mm column, 100 Å pore size; Phenomenex. The starting conditions were 5% methanol containing 20 mM ammonium formate and 95% scCO2. The gradient was increased linearly to 60% methanol containing 20 mM ammonium formate in 4.5 min.

[7] = MP41 (GNA11 Q209L), 96 hours of treatment, read-out: GI50 by cell line, MP41
[8] = MP41 cell line, average of Rep. 1 and 2, read-out: GI50 MP41 Average
[9] = MP41 cell line, replicate 1, read-out: GI50 MP41 Rep. 1
[10] = MP41 cell line, replicate 2, read-out: GI50 MP41 Rep. 2
[11] = A375 (GNAQ/11 wild type), 96 hours of treatment, read-out: GI50 by cell line, A375
[12] = A375 cell line, average of Rep. 1 and 2, read-out: GI50 A375 Average
[13] = A375 cell line, replicate 1, read-out: GI50 A375 Rep. 1
[14] = A375 cell line, replicate 2, read-out: GI50 A375 Rep. 2
[15] = 92.1 (GNAQ Q209L), 96 hours of treatment, read-out: GI50 by cell line, 92.1
[16] = 92.1 cell line, average of Rep. 1 and 2, read-out: GI50 92.1 Average
[17] = 92.1 cell line, replicate 1, read-out: GI50 92.1 Rep. 1
[18] = 92.1 cell line, replicate 2, read-out: GI50 92.1 Rep. 2
[19] = SK-MEL-30 (GNAQ/11 wild type), 96 hours of treatment, read-out: GI50 by cell line, SK-MEL-30
[20] = SK-MEL-30 cell line, average of Rep. 1 and 2, read-out: GI50 SK-MEL-30 Average
[21] = SK-MEL-30 cell line, replicate 1, read-out: GI50 SK-MEL-30 Rep. 1
[22] = SK-MEL-30 cell line, replicate 2, read-out: GI50 SK-MEL-30 Rep. 2

**Q.** What does the source list for `C=C1C(=O)N[C@@H](C)C(=O)N(C)[C@@H](C)C(=O)N[C@@H]([C@H](OC(=O)[C@@H](NC(=O)CC)[C@H](O)C(C)C)C(C)C)C(=O)N(C)[C@@H]([C@@H](C)OC)C(=O)O[C@H](C(C)C)[C@H](NC(=O)CC)C(=O)O[C@H](Cc2ccccc2)C(=O)N1C` [Compound 9] (Propionyl-[X1][dPhLac][NMeDha]A[NMeA][X1](Leu(3R-OH,Nα-propionyl))[NMeT](Me); ester 1-C)?
**A.** GI50 [1, 7]: 0.7 nM; GI50 [1, 8]: 0.7 nM; GI50 [1, 9]: 0.6 nM; GI50 [1, 10]: 0.78 nM; GI50 [2, 11]: > 260 nM; GI50 [2, 12]: > 260 nM; GI50 [2, 13]: > 260 nM; GI50 [2, 14]: > 260 nM; GI50 [3, 15]: 1.4 nM; GI50 [3, 16]: 1.4 nM; GI50 [3, 17]: 1.2 nM; GI50 [3, 18]: 1.69 nM; GI50 [4, 19]: > 260 nM; GI50 [4, 20]: > 260 nM; GI50 [4, 21]: > 260 nM; GI50 [4, 22]: > 260 nM; loss of potency compared to compound (A1) (growth inhibition) [5]: two to three

**Q.** What does the source list for `C=C1C(=O)N[C@@H](C)C(=O)N(C)[C@@H](C)C(=O)N[C@@H]([C@H](OC(=O)[C@@H](NC(C)=O)[C@H](O)C(C)C)C(C)C)C(=O)N(C)[C@@H]([C@@H](C)OC)C(=O)O[C@H](C)[C@H](NC(C)=O)C(=O)O[C@H](Cc2ccccc2)C(=O)N1C` [Compound 13] (Ac-T[dPhLac][NMeDha]A[NMeA][Leu(3R-O(AcLeu(3R-OH)))][NMeT](Me); ester 1-C)?
**A.** GI50 [1, 7]: 6 nM; GI50 [1, 8]: 6 nM; GI50 [1, 9]: 3.6 nM; GI50 [1, 10]: 8.31 nM; GI50 [2, 11]: > 260 nM; GI50 [2, 12]: > 260 nM; GI50 [2, 13]: > 260 nM; GI50 [2, 14]: > 260 nM; GI50 [3, 15]: 15.7 nM; GI50 [3, 16]: 15.7 nM; GI50 [3, 17]: 10.1 nM; GI50 [3, 18]: 21.4 nM; % Fraction absorbed (MDCK-LE monolayers): 46.5%; % Recovery (MDCK-LE monolayers): 85%; Papp A − B (MDCK-LE monolayers): 2.69 ×10⁻⁶ cm/s; GI50 [4, 19]: > 260 nM; GI50 [4, 20]: > 260 nM; GI50 [4, 21]: > 260 nM; GI50 [4, 22]: > 260 nM; EPSA [6]: 95 A^2
